According to ChEMBL document CHEMBL3885861, “Open TG-GATES”:

Species: Rattus norvegicus
Test: Open TG-GATES - Regimen: Single
Assay type: toxicity, organism-based, Sprague-Dawley
Parameters: regimen Single, gender Male, age 6 weeks
Conditions: in vivo, ip, 100 mg/kg, route intraperitoneal injection, dose level Low; for APTT / Bas / Eos / Fbg / Hb / Ht / Lym / MCH / MCHC / MCV / Mono / Neu / PT / Plat / RBC / Ret / WBC: tissue Blood; for KIDNEY_L / KIDNEY_R / KIDNEY_TOTAL: tissue Kidney; for LIVER: tissue Liver; for A/G / ALP / ALT / AST / BUN / CRE / Ca / Cl / DBIL / GLC / IP / K / LDH / Na / PL / RALB / TBIL / TC / TG / TP / gamma-GTP: tissue Plasma

N[C@H]1C(O)O[C@H](CO)[C@@H](O)[C@@H]1O (some centres not stated) [GLUCOSAMINE]
TERMINAL_BW (3 h): 188.6 g
APTT (3 h): 16.4 s
Bas (3 h): 0.4%
Eos (3 h): 1%
Fbg (3 h): 267.2 mg/dL
Hb (3 h): 13.3 g/dL
Ht (3 h): 41.3%
Lym (3 h): 75%
MCH (3 h): 21.3 pg
MCHC (3 h): 32.1%
MCV (3 h): 66.4 fL
Mono (3 h): 3.2%
Neu (3 h): 19.6%
PT (3 h): 15.7 s
Plat (3 h): 114.1 x10_4/uL
RBC (3 h): 623.2 x10_4/ul
Ret (3 h): 9.9%
WBC (3 h): 83.2 x10_2/uL
KIDNEY_L (3 h): 0.8 g
KIDNEY_R (3 h): 0.8 g
KIDNEY_TOTAL (3 h): 1.6 g
LIVER (3 h): 8.3 g
A/G (3 h): 0.9
ALP (3 h): 1288 IU/L
ALT (3 h): 42.2 IU/L
AST (3 h): 84.6 IU/L
BUN (3 h): 10.4 mg/dL
CRE (3 h): 0.2 mg/dL
Ca (3 h): 10.6 mg/dL
Cl (3 h): 108.4 meq/L
DBIL (3 h): 0.01 mg/dL
GLC (3 h): 171.6 mg/dL
IP (3 h): 9.2 mg/dL
K (3 h): 4 meq/L
LDH (3 h): 70 IU/L
Na (3 h): 143.4 meq/L
PL (3 h): 147.8 mg/dL
RALB (3 h): 2.5 g/dL
TBIL (3 h): 0.054 mg/dL
TC (3 h): 80.8 mg/dL
TG (3 h): 36.8 mg/dL
TP (3 h): 5.2 g/dL
gamma-GTP (3 h): 1 IU/L
TERMINAL_BW (6 h): 186.1 g
APTT (6 h): 17.1 s
Bas (6 h): 0%
Eos (6 h): 0.8%
Fbg (6 h): 259.4 mg/dL
Hb (6 h): 12.8 g/dL
Ht (6 h): 39.3%
Lym (6 h): 67%
MCH (6 h): 21.5 pg
MCHC (6 h): 32.7%
MCV (6 h): 65.9 fL
Mono (6 h): 3.6%
Neu (6 h): 27.6%
PT (6 h): 16.9 s
Plat (6 h): 114.6 x10_4/uL
RBC (6 h): 596 x10_4/ul
Ret (6 h): 9.9%
WBC (6 h): 82.3 x10_2/uL
KIDNEY_L (6 h): 0.8 g
KIDNEY_R (6 h): 0.8 g
KIDNEY_TOTAL (6 h): 1.7 g
LIVER (6 h): 7.7 g
A/G (6 h): 0.9
ALP (6 h): 1431.6 IU/L
ALT (6 h): 49.6 IU/L
AST (6 h): 94.2 IU/L
BUN (6 h): 8.8 mg/dL
CRE (6 h): 0.2 mg/dL
Ca (6 h): 10.1 mg/dL
Cl (6 h): 107.8 meq/L
DBIL (6 h): 0.006 mg/dL
GLC (6 h): 158 mg/dL
IP (6 h): 9.5 mg/dL
K (6 h): 3.9 meq/L
LDH (6 h): 58.6 IU/L
Na (6 h): 143.2 meq/L
PL (6 h): 144.2 mg/dL
RALB (6 h): 2.4 g/dL
TBIL (6 h): 0.054 mg/dL
TC (6 h): 80.2 mg/dL
TG (6 h): 40.2 mg/dL
TP (6 h): 5.1 g/dL
gamma-GTP (6 h): 1 IU/L
TERMINAL_BW (9 h): 185.8 g
APTT (9 h): 18.8 s
Bas (9 h): 0%
Eos (9 h): 0.8%
Fbg (9 h): 289.4 mg/dL
Hb (9 h): 12.9 g/dL
Ht (9 h): 39.8%
Lym (9 h): 68.4%
MCH (9 h): 21 pg
MCHC (9 h): 32.3%
MCV (9 h): 64.8 fL
Mono (9 h): 1.8%
Neu (9 h): 28.4%
PT (9 h): 16.1 s
Plat (9 h): 104 x10_4/uL
RBC (9 h): 614.4 x10_4/ul
Ret (9 h): 9.1%
WBC (9 h): 60.7 x10_2/uL
KIDNEY_L (9 h): 0.8 g
KIDNEY_R (9 h): 0.8 g
KIDNEY_TOTAL (9 h): 1.7 g
LIVER (9 h): 7.4 g
A/G (9 h): 0.9
ALP (9 h): 1454.4 IU/L
ALT (9 h): 39 IU/L
AST (9 h): 83.4 IU/L
BUN (9 h): 8 mg/dL
CRE (9 h): 0.2 mg/dL
Ca (9 h): 10.4 mg/dL
Cl (9 h): 107 meq/L
DBIL (9 h): 0.008 mg/dL
GLC (9 h): 180 mg/dL
IP (9 h): 10.4 mg/dL
K (9 h): 3.6 meq/L
LDH (9 h): 54.8 IU/L
Na (9 h): 144 meq/L
PL (9 h): 142.2 mg/dL
RALB (9 h): 2.5 g/dL
TBIL (9 h): 0.056 mg/dL
TC (9 h): 78.8 mg/dL
TG (9 h): 35.6 mg/dL
TP (9 h): 5.3 g/dL
gamma-GTP (9 h): 1 IU/L
TERMINAL_BW (24 h): 202.9 g
APTT (24 h): 18.1 s
Bas (24 h): 0.2%
Eos (24 h): 1.6%
Fbg (24 h): 253.2 mg/dL
Hb (24 h): 12.8 g/dL
Ht (24 h): 39.2%
Lym (24 h): 69.2%
MCH (24 h): 20.8 pg
MCHC (24 h): 32.7%
MCV (24 h): 63.6 fL
Mono (24 h): 3%
Neu (24 h): 25.2%
PT (24 h): 16.2 s
Plat (24 h): 105.9 x10_4/uL
RBC (24 h): 616.8 x10_4/ul
Ret (24 h): 8.6%
WBC (24 h): 93.3 x10_2/uL
KIDNEY_L (24 h): 0.9 g
KIDNEY_R (24 h): 0.9 g
KIDNEY_TOTAL (24 h): 1.7 g
LIVER (24 h): 9 g
A/G (24 h): 0.9
ALP (24 h): 1735.2 IU/L
ALT (24 h): 51.8 IU/L
AST (24 h): 81.4 IU/L
BUN (24 h): 14.2 mg/dL
CRE (24 h): 0.2 mg/dL
Ca (24 h): 10.6 mg/dL
Cl (24 h): 107.4 meq/L
DBIL (24 h): 0.014 mg/dL
GLC (24 h): 181.6 mg/dL
IP (24 h): 8.5 mg/dL
K (24 h): 4.2 meq/L
LDH (24 h): 134.8 IU/L
Na (24 h): 143.8 meq/L
PL (24 h): 160.4 mg/dL
RALB (24 h): 2.6 g/dL
TBIL (24 h): 0.036 mg/dL
TC (24 h): 83.4 mg/dL
TG (24 h): 76.6 mg/dL
TP (24 h): 5.6 g/dL
gamma-GTP (24 h): 1 IU/L
